“Also recorded” adds a separate entry of the source.
How the values were obtained:
Format in all cases: cell-based
LINC01432 [1] = experiment: LINC01432 expression in U266B1 cells treated with standard drugs; settings: FIG. 8B, 8C
LINC01432 [2] = experiment: mFISH of LINC01432 in U266B1 cells treated with high-dose melphalan
Procedure: RNAScope was performed as previously described, with some modifications using RNAscope 2.5 HD Reagent Kit Red assay combined with Immunohistochemistry (Advanced Cell Diagnostics [ACD], Catalog #323180 and #322372) according to manufacturer's instructions. Briefly, bone marrow aspirates or isolated tumors were applied to slides were baked in a dry air oven for one hour at 60° C., deparaffinized (Xylene for five minutes twice, followed by 100% ethanol for two minutes twice), hydrogen peroxide was applied for 10 minutes at room temperature, and co-detection target retrieval was performed using Steamer (BELLA) for twenty minutes and PBS-T washing. Slides were then incubated overnight with CUGBP2 (CELF2) antibody (Protein Tech, Cat #12921-1-AP) in a HybEz Slide Rack with damp humidifying paper and incubated overnight at 4° C. The next day, slides were washed in PBS-T then post-primary fixation was performed by submerging slides in 10% NBF for 30 minutes at room temperature. […]
Analysis of mFISH and IHC images was performed by comparing expression of LINC01432 or CELF2 between different cell lines or tissues and simultaneously verifying their cellular localization or intensity of expression. We first visualized our target RNA molecules using an EVOS M5000 imaging system and quantified targets with QuPath Software v0.5.1 to obtain cell-count per region and number of spots per cell data. […]

[3] = tested on: LINC01432 binding to CELF2; experiment: iCLIP RT-qPCR of CELF2 binding to LINC01432 in U266B1 cells treated with melphalan; settings: high-dose melphalan for 48 hours, FIG. 16B
Procedure: Cells were seeded at a density of twenty million cells/150 mm dish. The next day, cells were washed with cold PBS and media volumes were adjusted to 10 ml/dish. Dishes were then uncovered and irradiated with 150 mJ/cm^2 of […] (254 nm) in a crosslinker device (Stratalinker). Cells were then harvested and centrifuged at 2000 RPM at 4° C. for 5 minutes. Cell pellets were resuspended in 1 ml of NP-40 lysis buffer (20 mM Tris-HCl at pH 7.5, 100 mM KCl, 5 mM MgCl2, and 0.5% NP-40) with 1 μl protease inhibitor and 1 mM DTT, incubated on ice for ten minutes, and then centrifuged at 10,000 RPM for 15 minutes at 4° C. Supernatants were collected, 1 U/μl RNase T1 was added, then cell lysates were incubated at 22° C. for 30 minutes. Protein G Beads were resuspended in 100 μls NT2 buffer (50 mM Tris-HCl at pH 7.5, 150 mM NaCl,1 mM MgCl2, 0.05% NP-40) with 5 μg of respective antibodies, then rotated for one hour at room temperature. Cell lysates were added to the beads and incubated for three hours at 4° C., the beads were washed with NT2 buffer, and then incubated with 20 units RNAse-free DNase I for 15 minutes at 37° C. in a thermomixer, shaking slowly. […] (141 μls NP-40 lysis buffer, 0.1% SDS, 0.5 mg/ml Proteinase K) was then added and incubated for 15 minutes at 55° C. in a thermomixer, shaking at maximum speed. […]

MM cell lines = experiment: Apoptosis after LNA ASO-mediated CELF2 knockdown; settings: MM cell lines (U266B1 in FIG. 12B); vs control LNA ASO
LINC01432 [4] = experiment: RT-qPCR of LINC01432 expression after LNA ASO transfection; settings: RPMI 8226 cells; 100 nM ASO, 48-72 hours; vs control LNA ASO; FIG. 5A
Procedure: (§1) Locked nucleic acid GapmeR antisense oligonucleotides (LNA ASOs) targeting LINC01432 (Qiagen, cat #3653410) and CELF2 (Qiagen, cat #339511), and negative control LNA ASOs (Qiagen, cat #148759394), were designed using the Qiagen Antisense LNA GapmeR Custom Builder (https://www.qiagen.com), sequences are listed in Table 2. RPMI 8226 cells were seeded at a density of 500,000 cells/well in 6-well plates, transfected with respective ASOs at 100 nM concentration using Lipofectamine 2000, and incubated for 48-72 hours. Cells were harvested and target knockdown was validated via RT-qPCR.

RPMI 8226 cells [5] = tested on: RPMI 8226 cells
Procedure: as §1
(§2) We used the ApoTox-Glo Triplex Assay (Promega, Madison, WI) to simultaneously measure viability, cytotoxicity, and apoptosis in the same sample. We seeded 20,000 cells/well of Control CRISPR/Cas9, LINC01432 knockdown CRISPR/Cas9, empty vector, LINC01432 overexpression, or wild-type RPMI 8226 cells in triplicate into a 96-well plate at 100 uls complete media per well. We began by first adding 20 ul of Viability/Cytoxicity reagent to all wells, and briefly mixing for ˜30 seconds. Plates were then placed in a 37° C. incubator for one hour. Next, we measured the intensity of fluorescence (relative fluorescence units) using 400Ex/505Em (viability) and 485Ex/520Em (Cytotoxicity) in Varioskan LUX microplate reader. To measure apoptosis, we next add 100 ul Caspase-Glo 3/7 reagent to the same wells and briefly mixed by orbital shaking ˜20 seconds, followed by incubation at room temp for 30 minutes. Luminescence (relative luminescence units) was then measured using Varioskan LUX microplate reader to detect caspase activation. A similar protocol was used to detect the proliferation of cells treated with Melphalan at increasing concentrations (Sigma Aldrich, St. Louis, MO, cat #M2011) using 10 uls Invitrogen alamarBlue HS Cell Viability Reagent in 90 μls of 25,000 cells with media (Waltham, MA, cat #A50100). Fluorescence was then measured using 560Ex/570Em in a microplate reader.

RPMI 8226 cells [6] = experiment: Annexin V and propidium iodide flow cytometry, LNA ASO followed by Melphalan
Procedure: We measured apoptosis by isolating cells and assessing via flow cytometry using BD Horizon V450 AnnexinV (BD Biosciences, Franklin Lakes, NJ). We seeded 500,000 cells/well in a 6-well plate for 24 hours. Cells were then harvested, and the usual protocol was followed, per manufactures instructions. Briefly, cells were washed twice with PBS, then incubated V450 AnnexinV and Propidium Iodide (ThermoFisher) for fifteen minutes at room temperature in the dark. Apoptosis and DNA content was assessed on a flow cytometer machine (Novios, Becton Dickinson) by the Flow Cytometry Core of Siteman Cancer Center, Washington University in St. Louis. We collected a minimum of 50,000 cells per sample in triplicate. FlowJo Version10 (Becton Dickinson) was used to analyze data.

RPMI 8226 cells [7] = experiment: Proliferation (alamarBlue, IC50 assay) of cells treated with LNA ASO and Melphalan
Procedure: as §2

In the case of `N[C@@H](Cc1ccc(N(CCCl)CCCl)cc1)C(=O)O` [melphalan, Melphalan], the LINC01432 expression (LINC01432 [1]) is reported as “increases LINC01432 expression”, the “LINC01432 expression by mFISH” value (LINC01432 [2]; high-dose melphalan for 24 hours, p=0.001) is reported as “High expression” and the “LINC01432 expression by mFISH” value (LINC01432 [2]; high-dose melphalan for 48 hours, p=0.0012) is reported as “High expression”. For the same molecule, the “decrease in binding enrichment compared to control cells, Tiling Primer 1” value [3] was over 2 Fold Change and the “decrease in binding enrichment compared to control cells, Tiling Primer 5” value [3] was over 2 Fold Change.

In the case of “CELF2 LNA ASO: LNA GapmeR antisense oligonucleotide targeting CELF2, GATGAACTCGTTACGC (SEQ_ID_NO: 33) (antisense GAUGAACUCGUUACGC; LNA gapmer from Qiagen, LNA pattern not given here)”, the apoptosis (MM cell lines) is reported as “increased apoptosis”.

In the case of “LINC01432-targeted LNA ASO: LNA GapmeR antisense oligonucleotide targeting LINC01432, TGGAGATTTTGCCATT (SEQ_ID_NO: 31) (antisense UGGAGAUUUUGCCAUU; LNA gapmer, pattern not given here)”, the LINC01432 expression (LINC01432 [4]) is reported as “confirmed knockdown of LINC01432 expression”, the cytotoxicity (RPMI 8226 cells [5]) is reported as “significant decreases” and the viability (RPMI 8226 cells [5]; RPMI 8226 cells, vs control LNA ASO, p=0.001, FIG. 5B) is reported as “significant decreases”. The apoptosis (RPMI 8226 cells [5]; RPMI 8226 cells, vs control LNA ASO, p=0.017, FIG. 5B) was “significant increase”, the “apoptosis on co-treatment with melphalan” value (RPMI 8226 cells [6]; MM cell lines in vitro, co-treatment with high-dose melphalan) was “increased apoptosis” and the “proportion of cells in early apoptosis and necrosis” value (RPMI 8226 cells [6]; RPMI 8226 cells, LNA ASO followed by 24 hours of 30 μM Melphalan, vs control LNA ASO, FIG. 5C) was “increased”. For the same molecule, the sensitivity to melphalan (RPMI 8226 cells [7]; MM cell lines in vitro, with high-dose melphalan) was “induce sensitivity to melphalan; also recorded: enhanced sensitivity to melphalan” and the proliferation (RPMI 8226 cells [7]; RPMI 8226 cells, LNA ASO plus Melphalan, vs control LNA ASO, FIG. 5D) was “decreased proliferation”.

From US20250277213A1, “COMPOSITIONS AND METHODS RELATED TO MULTIPLE MYELOMA-ASSOCIATED LONG NONCODING RNAS” (Washington University, priority 2024, published 2025)
